These results are taken from patent US6958357B2, “Substituted benzimidazoles, processes for their preparation, their use as medicaments, and medicaments comprising them” (Aventis Pharma Deutschland GmbH, priority 2000, dated 2005).

Several values for one entry are separate records, joined by “and”; a condition that tells them apart may be missing. Equal entries are not always repeated. Structures can show the parent of a compound that is named as a salt.

One data set addresses rNHE3 (Rattus norvegicus, UniProt P26433). Nature of the data set: recovery of the intracellular pH (pHi) after acidification, BCECF fluorescence, NHE inhibition. It counts as cell-based. Conditions: pH recovery recorded for three minutes in the case of NHE3; bicarbonate-free conditions. As for the experimental part: In this test, the recovery of the intracellular pH (pHi) after an acidification was determined which commences with functional NHE even under bicarbonate-free conditions. For this, the pHi was determined using the pH-sensitive fluorescent dye BCECF (Calbiochem, the precursor BCECF-AM was employed). The cells were first loaded with BCECF. The BCECF fluorescence was determined in a “Ratio Fluorescence Spectrometer” (Photon Technology International, South Brunswick, N.J., USA) at excitation wavelengths of 505 and 440 nm and an emission wavelength of 535 nm and converted into the pHi by means of calibration curves. The cells were incubated in NH4Cl buffer (pH 7.4) even in the case of BCECF loading (NH4Cl buffer: 115 mM NaCl, 20 mM NH4Cl, 5 mM KCl, 1 mM CaCl2, 1 mM MgSO4, 20 mM Hepes, 5 mM glucose, 1 mg/ml of BSA; a pH of 7.4 is set using 1 M NaOH). The intracellular acidification was induced by addition of 975 μl of an NH4Cl-free buffer (see below) to 25 μl aliquots of the cells incubated in NH4Cl buffer. The subsequent rate of pH recovery was recorded for two minutes in the case of NHE1, for five minutes in the case of NHE2, and for three minutes in the case of NHE3. For the calculation of the inhibitory potency of the substances tested, the cells were first investigated in buffers in which a complete pH recovery or no pH recovery at all took place. For the complete pH recovery (100%), the cells were incubated in Na+-containing buffer (133.8 mM NaCl, 4.7 mM KCl, 1.25 mM CaCl2, 1.25 mM MgCl2, 0.97 mM […], 0.23 mM […], 5 mM Hepes, 5 mM glucose; a pH of 7.0 is set using 1 M NaOH). For the determination of the 0% value, the cells were incubated in an Na+-free buffer (133.8 mM choline chloride, 4.7 mM KCl, 1.25 mM CaCl2, 1.25 mM MgCl2, 0.97 mM K2HPO4, 0.23 mM KH2PO4, 5 mM Hepes, 5 mM glucose; a pH of 7.0 is set using 1 M NaOH). The substances to be tested were applied in the Na+-containing buffer. The recovery of the intracellular pH at each tested concentration of a substance was expressed in percent of the maximum recovery. The IC value of the respective substance for the individual NHE subtypes was calculated from the percentage values of the pH recovery by means of the program Sigma-Plot.

rNHE3, sequence (P26433 29-831): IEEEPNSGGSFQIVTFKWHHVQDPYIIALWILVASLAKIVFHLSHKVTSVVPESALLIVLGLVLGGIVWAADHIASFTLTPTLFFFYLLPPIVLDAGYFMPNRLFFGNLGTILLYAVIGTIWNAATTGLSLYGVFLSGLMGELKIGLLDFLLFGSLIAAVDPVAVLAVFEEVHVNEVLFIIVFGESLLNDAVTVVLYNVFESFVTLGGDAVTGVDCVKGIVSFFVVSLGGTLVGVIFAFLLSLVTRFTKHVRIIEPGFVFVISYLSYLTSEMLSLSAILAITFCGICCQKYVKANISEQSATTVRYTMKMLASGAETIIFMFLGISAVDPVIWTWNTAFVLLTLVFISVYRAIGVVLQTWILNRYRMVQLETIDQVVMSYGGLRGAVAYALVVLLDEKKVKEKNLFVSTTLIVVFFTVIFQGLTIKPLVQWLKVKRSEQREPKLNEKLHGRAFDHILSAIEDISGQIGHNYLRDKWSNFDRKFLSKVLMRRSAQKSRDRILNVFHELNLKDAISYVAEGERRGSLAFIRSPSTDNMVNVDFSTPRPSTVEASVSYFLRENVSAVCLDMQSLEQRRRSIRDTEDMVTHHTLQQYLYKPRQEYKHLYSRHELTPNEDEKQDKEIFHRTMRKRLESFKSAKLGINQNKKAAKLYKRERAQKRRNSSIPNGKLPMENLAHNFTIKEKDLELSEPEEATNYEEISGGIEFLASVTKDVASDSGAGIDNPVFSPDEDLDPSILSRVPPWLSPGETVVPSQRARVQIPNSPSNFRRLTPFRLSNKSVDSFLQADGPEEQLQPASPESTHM

Broadly, the melting point is the temperature, or range, at which the solid turns liquid. For `Oc1ccc2[nH]c(Nc3c(Cl)cccc3Cl)nc2c1` (as salt: hydrobromid) [Example 13, 2-(2,6-Dichlorophenylamino)-5-hydroxybenzimidazole hydrobromide], the melting point lay in the range of 265 to 269 °C.

In the case of `Fc1ccc2[nH]c(Nc3c(Cl)cccc3Cl)nc2c1` (as salt: hydrochloride) [Example 9, 2-(2,6-Dichlorophenylamino)-5-fluorobenzimidazole hydrochloride], the melting point lay in the range of 294 to 296 °C.

On to `FC(F)(F)c1cccc(Cl)c1Nc1nc2ccccc2[nH]1` (as salt: hydrochloride) [Example 11, 2-(2-Trifluoromethyl-6-chlorophenylamino)benzimidazole hydrochloride], for which the melting point was 255 to 288 °C.

Consider `Fc1c(F)c(F)c2[nH]c(Nc3c(Cl)cccc3Cl)nc2c1F` (as salt: hydrochloride) [Example 14, 2-(2,6-Dichlorophenylamino)-4,5,6,7-tetrafluorobenzimidazole hydrochloride], for which the melting point is 220 to 222 °C.

Broadly, the IC50 is the concentration needed to halve the response being measured. The low end stands for higher potency, the high end for lower potency. `Clc1cccc(Cl)c1Nc1nc2ccccc2[nH]1` [Example 1, (1H-Benzimidazol-2-yl)-(2,6-dichlorophenyl)amine hydrochloride] registered an IC50 against rNHE3 of 0.53 µM.

As to `Cl.Oc1cccc2[nH]c(Nc3c(Cl)cccc3Cl)nc12` [Example 2, 2-(2,6-Dichlorophenylamino)-1H-benzimidazol-4-ol Hydrochloride], the melting point was 333 to 335 °C. 0.47 µM corresponded to half-maximal inhibition against rNHE3 (IC50).

On rNHE3, `Cc1cccc(C)c1Nc1nc2ccccc2[nH]1` [Example 3, (1H-Benzimidazol-2-yl)-(2,6-dimethylphenyl)amine trifluoracetate] had a half-inhibitory concentration (IC50) of 0.64 µM.

`Cc1cccc(Cl)c1Nc1nc2ccccc2[nH]1` [Example 4, (1H-Benzimidazol-2-yl)-(2-chloro-6-methylphenyl)amine hydrochloride] came in with a half-maximal inhibitory concentration (IC50) against rNHE3 of 0.49 µM.

Take `Fc1cc2nc(Nc3c(Cl)cccc3Cl)[nH]c2cc1F` [Example 5, (2,6-Dichlorophenyl)-(5,6-difluoro-1H-benzimidazol-2-yl)amine hydrochloride]: the half-inhibitory concentration (IC50) at rNHE3 was 0.78 µM.

On to `Cc1cccc2[nH]c(Nc3c(Cl)cccc3Cl)nc12` [Example 6, (2,6-Dichlorophenyl)-(4-methyl-1H-benzimidazol-2-yl)amine trifluoracetate], for which, at rNHE3, the IC50 stood at 0.39 µM.

Take `Fc1cccc(Cl)c1Nc1nc2ccccc2[nH]1` [Example 7, (1H-Benzimidazol-2-yl)-(2-chloro-6-fluorophenyl)amine hydrochloride]: at rNHE3, the IC50 worked out at 0.52 µM.

Compound `Brc1cccc(Br)c1Nc1nc2ccccc2[nH]1` [Example 8, (1H-Benzimidazol-2-yl)-(2,6-dibromophenyl)amine trifluoroacetate] gave an IC50 against rNHE3 of 0.65 µM.

`Fc1ccc2[nH]c(Nc3c(Cl)cccc3Cl)nc2c1` [Example 9, 2-(2,6-Dichlorophenylamino)-5-fluorobenzimidazole hydrochloride]: the half-maximal inhibitory concentration (IC50) on rNHE3 came to 1 µM.

Compound `Cl.Fc1cccc2nc(Nc3c(Cl)cccc3Cl)[nH]c12` [Example 10, 2-(2,6-Dichlorophenylamino)-4-fluorobenzimidazole hydrochloride] returned a melting point of 268 to 296 °C. On rNHE3, the IC50 came to 3.2 µM.

`FC(F)(F)c1cccc(Cl)c1Nc1nc2ccccc2[nH]1` [Example 11, 2-(2-Trifluoromethyl-6-chlorophenylamino)benzimidazole hydrochloride] gave an IC50 on rNHE3 of 0.83 µM.

On to `Cl.Fc1ccc2nc(Nc3c(Cl)cccc3Cl)[nH]c2c1F` [Example 12, 2-(2,6-Dichlorophenylamino)-4,5-difluorobenzimidazole hydrochloride], for which the melting point is 232 to 234 °C and 228 to 230 °C. The compound further had a concentration for half-maximal inhibition (IC50) on rNHE3 of 2.9 µM.

Compound `Oc1ccc2[nH]c(Nc3c(Cl)cccc3Cl)nc2c1` [Example 13, 2-(2,6-Dichlorophenylamino)-5-hydroxybenzimidazole hydrobromide] yielded an IC50 at rNHE3 of 1.1 µM.

For `Fc1c(F)c(F)c2[nH]c(Nc3c(Cl)cccc3Cl)nc2c1F` [Example 14, 2-(2,6-Dichlorophenylamino)-4,5,6,7-tetrafluorobenzimidazole hydrochloride], half-maximal inhibition against rNHE3 (IC50) required 5.6 µM.

In turn, `Cl.Fc1cc(F)c2[nH]c(Nc3c(Cl)cccc3Cl)nc2c1` [Example 15, 2-(2,6-Dichlorophenylamino)-4,6-difluorobenzimidazole hydrochloride] returned a melting point of 310 to 314 °C. This compound registered a half-inhibitory concentration (IC50) against rNHE3 of 1.6 µM.

Regarding `Clc1ccccc1Nc1nc2ccccc2[nH]1` [Example 16, (1H-Benzimidazol-2-yl)-(2-chlorophenyl)amine trifluoroacetate], the half-maximal inhibitory concentration (IC50) at rNHE3 was determined as 0.63 µM.

As for `FC(F)(F)c1ccccc1Nc1nc2ccccc2[nH]1` [Example 17, (1H-Benzimidazol-2-yl)-(2-trifluoromethylphenyl)amine trifluoroacetate], 3.5 µM corresponded to half-maximal inhibition against rNHE3 (IC50).

`Brc1ccccc1Nc1nc2ccccc2[nH]1` [Example 18, (1H-Benzimidazol-2-yl)-(2-bromophenyl)amine trifluoroacetate] registered an IC50 against rNHE3 of 1.2 µM.

The compound `Cc1ccccc1Nc1nc2ccccc2[nH]1` [Example 19, (1H-Benzimidazol-2-yl)-o-tolylamine hydrochloride] displayed an IC50 against rNHE3 of 3.5 µM.
